We go through seven compounds from patent US12466820B2, “Amino quinazoline derivatives as P2X3 inhibitors” (CHIESI FARMACEUTICI S.p.A., priority 2019, dated 2025).

The target in one assay is T1, h P2X3 (Homo sapiens, UniProt P56373).
T1 sequence (P56373 1-397): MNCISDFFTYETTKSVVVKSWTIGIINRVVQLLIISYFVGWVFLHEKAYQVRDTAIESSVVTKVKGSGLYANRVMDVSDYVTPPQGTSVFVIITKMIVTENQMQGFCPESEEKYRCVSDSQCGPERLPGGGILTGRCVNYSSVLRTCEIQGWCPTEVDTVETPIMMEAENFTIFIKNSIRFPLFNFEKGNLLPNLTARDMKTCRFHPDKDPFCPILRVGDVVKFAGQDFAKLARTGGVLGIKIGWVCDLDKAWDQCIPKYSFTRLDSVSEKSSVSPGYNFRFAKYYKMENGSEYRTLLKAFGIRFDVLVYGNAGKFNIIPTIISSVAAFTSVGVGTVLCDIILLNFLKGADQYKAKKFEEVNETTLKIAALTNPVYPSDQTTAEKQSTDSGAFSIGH
As to the kind of experiment: In vitro electrophysiology assay for P2X3 (automated whole-cell patch clamp, Sophion Qube). It counts as cell-based. The note with it: range of activity. In short, it runs like this:
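Whole-cell automated patch clamp at room temperature, cells held at −60 mV; after two 800 nM α,β-MeATP baseline responses, antagonist preincubated 10 min then co-applied with 800 nM α,β-MeATP. Inhibition of peak current vs second agonist response; IC50 from 10-concentration curves, one concentration per cell.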
In general terms: Patch clamp records ionic current or voltage across a cell membrane.

A further assay has as its target T2, h P2X2/3 (Homo sapiens, UniProt P56373+Q9UBL9).
T2 sequence (P56373 1-397): T1 sequence (P56373 1-397)
T2 sequence (Q9UBL9 1-471): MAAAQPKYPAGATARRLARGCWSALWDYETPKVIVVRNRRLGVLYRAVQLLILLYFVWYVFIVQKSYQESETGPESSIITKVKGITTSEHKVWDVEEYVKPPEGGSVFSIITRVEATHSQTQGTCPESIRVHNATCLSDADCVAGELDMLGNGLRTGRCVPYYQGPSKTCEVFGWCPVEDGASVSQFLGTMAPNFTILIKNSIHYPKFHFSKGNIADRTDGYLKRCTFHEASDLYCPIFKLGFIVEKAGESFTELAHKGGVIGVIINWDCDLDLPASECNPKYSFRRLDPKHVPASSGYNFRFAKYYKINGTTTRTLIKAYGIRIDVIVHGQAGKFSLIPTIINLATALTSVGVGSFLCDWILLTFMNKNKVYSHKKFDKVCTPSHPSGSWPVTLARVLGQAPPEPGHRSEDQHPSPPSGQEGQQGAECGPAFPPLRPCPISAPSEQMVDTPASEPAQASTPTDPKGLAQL
As to the kind of experiment: In vitro electrophysiology assay for P2X2/3 (same protocol, 10 μM ATP as agonist). Particulars: Table 7, range of activity. It counts as cell-based. On the procedure:
Cells expressing P2X3 receptors were grown according to standard practice and maintained at 37° C. in a 5% humidified CO2 atmosphere. The cells were seeded into T175 flask 2 days prior to the day of the assay and dissociated from the flasks using TrypLE when grown to confluence of 80-90%. The dissociated cells were resuspended in serum free media at a cell density of 3×10^6 cells/ml and loaded onto the Sophion Qube automated patch-clamp system. The extracellular assay buffer contained 145 mM NaCl, 4 mM KCl, 2 mM CaCl2), 1 mM MgCl2, 10 mM HEPES, and 10 mM glucose at pH 7.4. The intracellular assay solution contained 140 mM CsF, 10 mM NaCl, 10 mM EGTA, 10 mM HEPES at pH 7.2. Agonist stock solutions were prepared in H2O and diluted in bath solution prior to use. All antagonists were prepared as 10 mM stock solutions in DMSO and diluted in bath solution prior to use. All experiments were performed under the whole-cell patch clamp configuration at room temperature with 384 individual cells being voltage clamped at −60 mV simultaneously on the Sophion Qube instrument. Two baseline responses were established with the application of α,β-MeATP (800 nM), with the subsequent agonist applications being washed out using extracellular assay buffer containing 0.5 U/ml apyrase. Following the second agonist application, antagonist was incubated in the absence of α,β-MeATP for 10 minutes. After antagonist preincubation, 800 nM α,β-MeATP and antagonist were co-administered to determine the inhibitory effect of the antagonist. One concentration of an antagonist was assessed against a single cell, with different concentrations of the antagonist applied to other cells on the 384 recording substrate. The control P2X3 current amplitude was taken from the peak current amplitude from the second agonist response prior to preincubation with antagonist. The peak P2X3 current amplitude in the presence of antagonist was used to calculate the inhibitory effect at each concentration of the antagonist according to the following equation: […]
Concentration-response curves were constructed from ten different concentrations with each concentration of antagonist tested on at least two individual cells. The concentration of the antagonist to inhibit P2X3 current by 50% (IC50) was determined by fitting the data with the following equation: […]
Where ‘a’ is minimum response, ‘b’ is maximum response, ‘c’ is IC50 and ‘d’ is Hill slope.
Representative compound of the present invention have been also tested for P2X2/3 receptor.
The same assay protocol was used for the P2X2/3 assay as the P2X3 assay with two modifications: 1) 10 μM ATP was used as the agonist; and 2) the mean current amplitude was measured seven seconds after the application of agonist.

Where [1] appears, read: Table 6, inhibition of P2X3 current, agonist α,β-MeATP (800 nM).

Structures are written as SMILES.

The term IC50 denotes the midpoint of a concentration-inhibition curve. Regarding `COc1cc(-c2ccc(F)cn2)cc2c(NC(C)c3nc(C)no3)ncnc12` (stereo not drawn) [Example 2, 6-(5-fluoropyridin-2-yl)-8-methoxy-N-(1-(3-methyl-1,2,4-oxadiazol-5-yl)ethyl)quinazolin-4-amine], the IC50 on h P2X3 (setting [1]) is less than 316 nM; on h P2X3 (Table 7) it was less than 316 nM; at h P2X2/3, 3160 to 31600 nM.

Turning to `COc1cc(-c2ccc(C)cn2)cc2c(NC(C)c3nc(C)no3)ncnc12` (single isomer, unassigned) [Example 163, 8-Methoxy-N-[1-(3-methyl-1,2,4-oxadiazol-5-yl)ethyl]-6-(5-methyl-2-pyridyl)quinazolin-4-amine], the figures for the IC50 on h P2X3 (setting [1]), at h P2X3 (Table 7) and on h P2X2/3 were less than 316 nM, less than 316 nM and 3160 to 31600 nM, respectively.

With `COc1cc(-c2ccc(F)cn2)cc2c(NCc3ccc(C)nc3)ncnc12` [Example 149, 6-(5-fluoropyridin-2-yl)-8-methoxy-N-((6-methylpyridin-3-yl)methyl)quinazolin-4-amine], the IC50 on h P2X3 (setting [1]) is less than 316 nM; against h P2X3 (Table 7), less than 316 nM; at h P2X2/3, 3160 to 31600 nM.

Take `COc1cc(-c2ncc(C)cn2)cc2c(NCc3nnc(C)s3)ncnc12` [Example 153, 8-methoxy-N-((5-methyl-1,3,4-thiadiazol-2-yl)methyl)-6-(5-methylpyrimidin-2-yl)quinazolin-4-amine]: the IC50 on h P2X3 (setting [1]) is less than 316 nM; against h P2X3 (Table 7) it was less than 316 nM; at h P2X2/3 it was 3160 to 31600 nM.

For `COc1cc(-c2ccc(C)cn2)cc2c(NC(C)c3nnc(C)s3)ncnc12` (single isomer, unassigned) [Example 127, 8-methoxy-6-(5-methyl-2-pyridyl)-N-[1-(5-methyl-1,3,4-thiadiazol-2-yl)ethyl]quinazolin-4-amine], the IC50 was less than 316 nM at h P2X3 (setting [1]), less than 316 nM at h P2X3 (Table 7) and 3160 to 31600 nM on h P2X2/3.

For `COc1cc(-c2ccc(F)cn2)cc2c(NC(C)c3nnc(C)s3)ncnc12` (single isomer, unassigned) [Example 174, 6-(5-fluoropyridin-2-yl)-8-methoxy-N-(1-(5-methyl-1,3,4-thiadiazol-2-yl)ethyl)quinazolin-4-amine], the IC50 at h P2X3 (setting [1]) and on h P2X3 (Table 7) was less than 316 nM throughout. Moreover, the “h P2X2/3” value on h P2X2/3 is given as “+ (+: 5.5<pIC50 h P2X3 or h P2X2/3>4.5)”.

`COc1cc(-c2ncc(C)cn2)cc2c(NC(C)c3ccc(C(F)(F)F)nn3)ncnc12` (single isomer, unassigned) [Example 121, 8-methoxy-6-(5-methylpyrimidin-2-yl)-N-[1-[6-(trifluoromethyl)pyridazin-3-yl]ethyl]quinazolin-4-amine]: the values for the IC50 on h P2X3 (setting [1]), at h P2X3 (Table 7) and at h P2X2/3 were 316 to 3160 nM, less than 316 nM and 316 to 3160 nM, respectively.
